# Measurements taken from PMC6718324 (European journal of medicinal chemistry, 2019).
# How the values were obtained:
# hPXR = biological target: T1, hPXR (Homo sapiens, UniProt O75469); assay: HepG2 cell reporter assay, hPXR activation; assay type: cell-based; conditions: 1 μM; for hPXR activation in HepG2 cell reporter assay (in words): normalized against rifampicin; for selectivity for hCAR over hPXR (in words): HepG2 cell reporter assays
# T1 sequence (O75469 1-434): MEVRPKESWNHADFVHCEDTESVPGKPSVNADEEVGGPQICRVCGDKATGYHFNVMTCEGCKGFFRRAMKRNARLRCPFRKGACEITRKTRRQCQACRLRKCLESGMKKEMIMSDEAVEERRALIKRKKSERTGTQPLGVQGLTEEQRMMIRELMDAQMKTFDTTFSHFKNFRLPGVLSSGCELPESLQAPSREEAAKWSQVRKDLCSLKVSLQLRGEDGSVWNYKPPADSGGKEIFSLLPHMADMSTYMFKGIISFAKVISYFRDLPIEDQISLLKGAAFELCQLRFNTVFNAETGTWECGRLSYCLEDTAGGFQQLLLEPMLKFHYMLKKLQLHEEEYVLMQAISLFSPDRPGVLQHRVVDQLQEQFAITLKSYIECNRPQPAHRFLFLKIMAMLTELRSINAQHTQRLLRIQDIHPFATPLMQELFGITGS
# hCAR [1] = biological target: T2, hCAR (Homo sapiens, UniProt Q14994); assay: hCAR agonist luciferase reporter gene assay; assay type: cell-based; conditions: for fold decrease in potency (EC50) compared to compound 2: hCAR EC50 vs parent compound 2; for hCAR agonist activity (in words): hCAR luciferase reporter
# T2 sequence (Q14994 1-348 isoform Q14994-2): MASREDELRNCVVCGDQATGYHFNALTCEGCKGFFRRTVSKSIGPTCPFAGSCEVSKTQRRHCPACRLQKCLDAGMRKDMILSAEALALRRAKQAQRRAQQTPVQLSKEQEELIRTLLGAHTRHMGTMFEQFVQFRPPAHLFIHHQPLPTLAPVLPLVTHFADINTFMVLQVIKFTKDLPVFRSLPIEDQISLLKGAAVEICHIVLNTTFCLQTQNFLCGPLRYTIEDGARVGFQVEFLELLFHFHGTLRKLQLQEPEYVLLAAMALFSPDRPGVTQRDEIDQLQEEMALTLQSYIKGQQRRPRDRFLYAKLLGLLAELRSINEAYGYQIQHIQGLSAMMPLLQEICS
# T2 sequence (P19793 1-462 partner): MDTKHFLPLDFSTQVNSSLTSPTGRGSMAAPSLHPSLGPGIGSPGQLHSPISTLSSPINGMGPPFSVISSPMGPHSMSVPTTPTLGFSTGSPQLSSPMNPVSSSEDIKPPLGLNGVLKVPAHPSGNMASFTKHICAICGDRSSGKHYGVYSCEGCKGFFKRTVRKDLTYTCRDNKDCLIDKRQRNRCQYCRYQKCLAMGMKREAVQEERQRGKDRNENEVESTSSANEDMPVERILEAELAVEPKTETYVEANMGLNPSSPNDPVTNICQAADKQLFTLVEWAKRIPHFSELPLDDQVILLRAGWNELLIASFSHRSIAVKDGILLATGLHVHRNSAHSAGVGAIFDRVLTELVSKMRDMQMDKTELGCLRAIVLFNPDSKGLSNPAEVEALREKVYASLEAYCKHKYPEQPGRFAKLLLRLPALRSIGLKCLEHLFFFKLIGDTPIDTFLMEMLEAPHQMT
# hCAR [2] = assay: HepG2 cell reporter assay, hCAR activation; assay type: cell-based, human; conditions: 1 μM; normalized against CITCO
# hCAR [3] = assay: hCAR nuclear translocation assay in HPH; assay type: cell-based, human; conditions: Ad-EYFP-hCAR-infected HPH, 1 μM, 8 h
# [4] = cited from earlier work
compound,measurement,setting,value
"Clc1ccc(-c2nc3sccn3c2COCCc2ccc(Cl)c(Cl)c2)cc1 [Compound 5, 6-(4-Chlorophenyl)-5-((3,4-dichlorophenethoxy)methyl)imidazo[2,1-b]thiazole]",hPXR activation in HepG2 cell reporter assay (in words),hPXR,significantly activated hPXR
"Clc1ccc(CCNCc2c(-c3ccc4ccccc4c3)nc3sccn23)cc1Cl [Compound 29, 2-(3,4-Dichlorophenyl)-N-((6-(naphthalen-2-yl)imidazo[2,1-b]thiazol-5-yl)methyl)ethan-1-amine]",fold decrease in potency (EC50) compared to compound 2,hCAR [1],3 fold
same,hCAR activation in HepG2 cell reporter assay (in words),hCAR [2],slight increase in activation of hCAR
same,selectivity for hCAR over hPXR (in words),hPXR,retained selectivity for hCAR over hPXR
"N#Cc1ccc(-c2nc3sccn3c2CNCCc2ccc(Cl)c(Cl)c2)cc1 [Compound 27, 4-(5-(((3,4-Dichlorophenethyl)amino)methyl)imidazo[2,1-b]thiazol-6-yl)benzonitrile]",hCAR agonist activity (in words),hCAR [1],significantly less active
"FC(F)(F)c1ccc(-c2nc3sccn3c2CNCCc2ccc(Cl)c(Cl)c2)cc1 [Compound 22, 2-(3,4-Dichlorophenyl)-N-((6-(4-(trifluoromethyl)phenyl)imidazo[2,1-b]thiazol-5-yl)methyl)ethan-1-amine]",hCAR agonist activity (in words),hCAR [1],much weaker agonist
"CC(C)(C)c1ccc(-c2nc3sccn3c2CNCCc2ccc(Cl)c(Cl)c2)cc1 [Compound 28, N-((6-(4-(tert-Butyl)phenyl)imidazo[2,1-b]thiazol-5-yl)methyl)-2-(3,4-dichlorophenyl)ethan-1-amine]",hCAR agonist activity (in words),hCAR [1],significantly less active
"Fc1ccc(-c2nc3sccn3c2CNCCc2ccc(Cl)c(Cl)c2)cc1 [Compound 23, 2-(3,4-Dichlorophenyl)-N-((6-(4-fluorophenyl)imidazo[2,1-b]thiazol-5-yl)methyl)ethan-1-amine]",hCAR activation in HepG2 cell reporter assay (in words),hCAR [2],slightly decreased activation potency
"Clc1ccc(-c2nc3sccn3c2CNCCc2ccccc2)cc1 [Compound 14, N-((6-(4-Chlorophenyl)imidazo[2,1-b]thiazol-5-yl)methyl)-2-phenylethan-1-amine]",hCAR agonist activity (in words),hCAR [1],potent hCAR agonist
same,selectivity for hCAR over hPXR (in words),hPXR,maintaining selectivity for hCAR against hPXR
"Clc1ccc(-c2nc3occn3c2CNCCc2ccc(Cl)c(Cl)c2)cc1 [Compound 7, N-((6-(4-Chlorophenyl)imidazo[2,1-b]oxazol-5-yl)methyl)-2-(3,4-dichlorophenyl)ethan-1-amine]",fold decrease in potency (EC50) compared to compound 2,hCAR [1],3.2 fold
same,hCAR activation in HepG2 cell reporter assay (in words),hCAR [2],slight decrease in hCAR activation potency
same,selectivity for hCAR over hPXR (in words),hPXR,good specificity for hCAR
"Clc1cccc(-c2nc3sccn3c2CNCCc2ccc(Cl)c(Cl)c2)c1 [Compound 20, N-((6-(3-Chlorophenyl)imidazo[2,1-b]thiazol-5-yl)methyl)-2-(3,4-dichlorophenyl)ethan-1-amine]",fold decrease in potency (EC50) compared to compound 2,hCAR [1],2.3 fold
"Clc1ccc(-c2nc3sccn3c2CNc2ccc3ccccc3c2)cc1 [Compound 18, N-((6-(4-Chlorophenyl)imidazo[2,1-b]thiazol-5-yl)methyl)naphthalen-2-amine]",hCAR agonist activity (in words),hCAR [1],inactive
"Clc1ccc(CCNCc2c(-c3ccccc3)nc3sccn23)cc1Cl [Compound 24, 2-(3,4-Dichlorophenyl)-N-((6-phenylimidazo[2,1-b]thiazol-5-yl)methyl)ethan-1-amine]",hCAR activation in HepG2 cell reporter assay (in words),hCAR [2],slightly decreased activation potency
"c1ccc2c(c1)CC(NCc1c(-c3ccc4ccccc4c3)nc3sccn13)C2 [Compound 31, N-((6-(Naphthalen-2-yl)imidazo[2,1-b]thiazol-5-yl)methyl)-2,3-dihydro-1H-inden-2-amine]",hCAR activation in HepG2 cell reporter assay (in words),hCAR [2],enhanced hCAR activation over CITCO
same,hPXR activation in HepG2 cell reporter assay (in words),hPXR,slightly increased
"CCc1nc2sccn2c1CNCCc1ccc(Cl)c(Cl)c1 [Compound 19, 2-(3,4-Dichlorophenyl)-N-((6-ethylimidazo[2,1-b]thiazol-5-yl)methyl)ethan-1-amine]",hCAR agonist activity (in words),hCAR [1],dramatic drop in hCAR activity
"Clc1ccc(-c2nc3sccn3c2CNC2Cc3ccccc3C2)cc1 [Compound 17, N-((6-(4-Chlorophenyl)imidazo[2,1-b]thiazol-5-yl)methyl)-2,3-dihydro-1H-inden-2-amine]",selectivity for hCAR over hPXR (in words),hPXR,maintaining selectivity for hCAR against hPXR
"c1ccc(CCNCc2c(-c3ccc4ccccc4c3)nc3sccn23)cc1 [Compound 30, N-((6-(Naphthalen-2-yl)imidazo[2,1-b]thiazol-5-yl)methyl)-2-phenylethan-1-amine]",hPXR activation in HepG2 cell reporter assay (in words),hPXR,significantly activated hPXR
"Clc1ccc(-c2nc3sccn3c2CNCCc2ccc(Cl)c(Cl)c2)cc1 [Compound 2, N-((6-(4-Chlorophenyl)imidazo[2,1-b]thiazol-5-yl)methyl)-2-(3,4-dichlorophenyl)ethan-1-amine]",fold increase in potency compared to CITCO,hCAR [1]; hCAR EC50 vs CITCO,1.4 fold
"Clc1ccc(-c2nc3ncccn3c2CNCCc2ccc(Cl)c(Cl)c2)cc1 [Compound 8, N-((2-(4-Chlorophenyl)imidazo[1,2-a]pyrimidin-3-yl)methyl)-2-(3,4-dichlorophenyl)ethan-1-amine]",fold decrease in potency (EC50) compared to compound 2,hCAR [1],2 fold
same,hCAR activation in HepG2 cell reporter assay (in words),hCAR [2],less potent compared to CITCO
"Clc1ccc(CCNCc2c(-c3ccc(Cl)cc3)nc3sccn23)cc1 [Compound 9, 2-(4-Chlorophenyl)-N-((6-(4-chlorophenyl)imidazo[2,1-b]thiazol-5-yl)methyl)ethan-1-amine]",fold decrease in potency (EC50) compared to compound 2,hCAR [1],1.6 fold
same,selectivity for hCAR over hPXR (in words),hPXR,maintaining selectivity for hCAR against hPXR
"Clc1ccc(-c2nc3sccn3c2CNCc2ccccc2)cc1 [Compound 15, N-Benzyl-1-(6-(4-chlorophenyl)imidazo[2,1-b]thiazol-5-yl)methanamine]",fold decrease in potency compared to compound 14,"hCAR [1]; hCAR EC50, analog one CH2 shorter than 14",over 11 fold
"Clc1ccc(-c2nc3sccn3c2CNCCc2cccc(Cl)c2)cc1 [Compound 10, 2-(3-Chlorophenyl)-N-((6-(4-chlorophenyl)imidazo[2,1-b]thiazol-5-yl)methyl)ethan-1-amine]",fold decrease in potency (EC50) compared to compound 2,hCAR [1],7 fold
"Clc1ccc(-c2nc3sccn3c2/C=N/OCc2ccc(Cl)c(Cl)c2)cc1 [CITCO, 6-(4-chlorophenyl)imidazo-[2,1-b]thiazole-5-carbaldehyde-O-(3,4-dichlorobenzyl)oxime, reference compound]",hCAR translocation from cytoplasm to nucleus (in words),hCAR [3],efficiently translocated into the nucleus
same,stability of results in hCAR luciferase gene reporter assay (in words),[4],unstable results
"Cc1cn2c(CNCCc3ccc(Cl)c(Cl)c3)c(-c3ccc(Cl)cc3)nc2s1 [Compound 6, N-((6-(4-Chlorophenyl)-2-methylimidazo[2,1-b]thiazol-5-yl)methyl)-2-(3,4-dichlorophenyl)ethan-1-amine]",fold decrease in potency (EC50) compared to compound 2,hCAR [1],5.5 fold
